Experimental data reported in patent publication US20140370177A1, “COMPOSITIONS” (Givaudan S.A., priority 2011, published 2014).

What was measured:
Assay type in all cases: in vivo, human
[1] = test system: sweet sensitive panelists; assay: Ranking test in water, sucrose iso-intensity, formal sensory panel (R-index); settings: for More Sweet Sample / R-index: in water
Experimental: (§1) The sensory evaluation was conducted using a ranking method. Samples at ambient temperature were randomly presented in 20 ml blind aliquots (unidentifiable by panelists). Panels consisted of 20 sweet sensitive subjects and samples were presented in 2 replications over 1 session. After tasting each sample, the mouth was rinsed thoroughly with water at ambient temperature prior to tasting the next sample. Panelists were presented with 0.5%, 1.0%, and 1.5% sucrose solutions in water and two samples of stevioside/rebaudioside A at 30 and 45 ppm in water, respectively. Subjects were asked to rank the samples from low to high with respect to perceived sweet taste. R-indices were calculated for 30 and 45 ppm stevioside/rebaudioside A samples versus either 0.5%, 1.0% or 1.5% sucrose.
The sensory evaluation was conducted using the same method as described in Example 4. Panels consisted of 20 sweet sensitive subjects and samples were presented in 2 replications over 1 session. Panelists were presented with 20 mL of 0.5%, 1.0%, and 1.5% sucrose solutions in water and two samples of stevioside/rebaudioside A (3:1) at 35 and 40 ppm in water, respectively. Subjects were asked to rank the samples from low to high with respect to perceived sweet taste. R-indices were calculated for 35 and 40 ppm stevioside/rebaudioside A samples versus either 0.5%, 1.0% or 1.5% sucrose.
Two ounces of each sample was presented in random order to 20 sweet sensitive panelists. In two replications (over 1 session), Panelists were asked to rank the samples from least sweet to most sweet. The data were subjected to an R-index analysis.

[2] = test system: experienced tasters; assay: Comparison of upfront sweetness on top of 5% sucrose solution, 5 experienced tasters
Experimental: Two mixtures, stevioside/rebaudioside A (3:1) and (2:1) were evaluated for their upfront sweetness in comparison with pure stevioside and rebaudioside A. Sensory evaluation was carried out with 5 experienced tasters. 30 ppm of stevioside/rebaudioside A (3:1), (2:1), and Rebaudioside A on top of 5% sucrose solution were prepared along with 20, 35, 45, 75 ppm stevioside in 5% sucrose solutions. Samples were prepared fresh and at room temperature and were paired and tasted with water rinsing in-between.

[3] = test system: sweet sensitive panelists; assay: Iso-intensity in 5% sucrose solution (sweetness enhancement), formal sensory panel (R-index)
Experimental: as §1
The sensory evaluation was conducted using the same method as described in Example 4. Panels consisted of 20 sweet sensitive subjects and samples were presented in 2 replications over 1 session. Panelists were presented with 20 mL of 5.5%, 6.0%, 6.5%, 7.0%, 8.0% sucrose solutions and one sample of 35 ppm stevioside/rebaudioside A in 5.0% sucrose, respectively. Subjects were asked to rank the samples from low to high with respect to perceived sweet taste. R-indices were calculated for 35 ppm stevioside/rebaudioside A in 5.0% sucrose sample versus either 6.0%, 6.5%, 7.0% or 8.0% sucrose.
The objective of this test was to determine the extent to which stevioside enhances sweetness perception of a 5% sucrose solution.
This example examined the effect of 30 ppm rebaudioside A on top of 5% sucrose.

[4] = 30 ppm Stevioside vs. 0.5% sucrose
[5] = 30 ppm Stevioside vs. 1.0% sucrose
[6] = 30 ppm Stevioside vs. 1.5% sucrose
[7] = 30 ppm Stevioside vs. 40 ppm Stevioside
[8] = 40 ppm Stevioside vs. 0.5% sucrose
[9] = 40 ppm Stevioside vs. 1.0% sucrose
[10] = 40 ppm Stevioside vs. 1.5% sucrose
[11] = 5% sucrose + 35 ppm Stevioside vs. 5.0% sucrose
[12] = 5% sucrose + 35 ppm Stevioside vs. 6.0% sucrose
[13] = 5% sucrose + 35 ppm Stevioside vs. 7.0% sucrose
[14] = 5% sucrose + 30 ppm RebA vs. 5% sucrose
[15] = 5% sucrose + 30 ppm RebA vs. 6% sucrose
[16] = 5% sucrose + 30 ppm RebA vs. 7% sucrose

In the case of C=C1C[C@@]23CC[C@H]4[C@@](C)(CCC[C@@]4(C)C(=O)O[C@@H]4O[C@H](CO)[C@@H](O)[C@H](O)[C@H]4O)[C@@H]2CC[C@]1(O[C@@H]1O[C@H](CO)[C@@H](O)[C@H](O)[C@H]1O[C@@H]1O[C@H](CO)[C@@H](O)[C@H](O)[C@H]1O)C3 [Stevioside, stevioside], the “More Sweet Sample” value [1, 4] is reported as 30 ppm, the R-index [1, 4] is reported as 25.625 and the “More Sweet Sample” value [1, 5] is reported as 1.0% sucrose. The R-index [1, 5] was 66.938, the “More Sweet Sample” value [1, 6] was 1.5% sucrose and the R-index [1, 6] was 94.750. The “More Sweet Sample” value [1, 7] was 40 ppm, the R-index [1, 7] was 80.188 and the “Sucrose equivalence of sweetness by interpolation” value ([1]; 30 ppm in water) was 0.75 % sucrose. The “Isosweet sucrose concentration determined from 30 and 40 ppm data” value ([1]; 35 ppm in water) was 1.0 % sucrose, the “More Sweet Sample” value [1, 8] was 40 ppm and the R-index [1, 8] was 11.375. The “More Sweet Sample” value [1, 9] was 40 ppm, the R-index [1, 9] was 29.094 and the “More Sweet Sample” value [1, 10] was 1.5% sucrose. The R-index [1, 10] was 82.219, the “Sucrose equivalence of sweetness by interpolation” value ([1]; 40 ppm in water) was 1.25 % sucrose and the “Description of upfront sweetness” value ([2]; 20, 35, 45, 75 ppm in 5% sucrose solutions) was “delayed onset and lack of the upfront sweetness”. For the same compound, the Ranking of sweetness ([2]; 75 ppm in 5% sucrose solution) was “ranked as the sweetest but not the most upfront one”, the “More Sweet Sample” value [3, 11] was 5% sucrose + and the R-index [3, 11] was 8.281. The “More Sweet Sample” value [3, 12] was 5% sucrose +, the R-index [3, 12] was 21.094 and the “More Sweet Sample” value [3, 13] was 7.0% sucrose. The R-index [3, 13] was 78.125, the “Iso-sweet sucrose concentration by interpolation” value ([3]; 35 ppm in 5% sucrose) was 6.5 % sucrose and the “Additional sucrose equivalence (sweetness enhancing effect)” value ([3]; 35 ppm on top of 5% sucrose) was 0.5 % sucrose equivalence.
C=C1C[C@@]23CC[C@H]4[C@@](C)(CCC[C@@]4(C)C(=O)O[C@@H]4O[C@H](CO)[C@@H](O)[C@H](O)[C@H]4O)[C@@H]2CC[C@]1(O[C@@H]1O[C@H](CO)[C@@H](O)[C@H](O[C@@H]2O[C@H](CO)[C@@H](O)[C@H](O)[C@H]2O)[C@H]1O[C@@H]1O[C@H](CO)[C@@H](O)[C@H](O)[C@H]1O)C3 [rebaudioside A] showed an Iso-intense sucrose concentration ([1]; 30 ppm, iso-intensity study) of 1 % sucrose, a More Sweet Sample [3, 14] of 5% sucrose + and a R-index [3, 14] of 1.313. For the same compound, the More Sweet Sample [3, 15] was 5% sucrose +, the R-index [3, 15] was 22.625 and the More Sweet Sample [3, 16] was 7% sucrose. For the same compound, the R-index [3, 16] was 89.000, the “Isosweet sucrose concentration by interpolation” value ([3]; 30 ppm in 5% sucrose) was 6.5 % sucrose and the “Sucrose equivalence in enhancement” value ([3]; 30 ppm on top of 5% sucrose) was 0.5 % sucrose equivalence.
